For 26 compounds, TGI and GI50 results are on record in PubChem BioAssay (NCI).

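Test compounds were applied to cells in 96-well plates for 48 hours at 5 doses. Abbreviation: GI50, concentration required for 50% inhibition of growth. TGI: total growth inhibition.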

Test systems include SK-MEL-5 melanoma; NCI-H522 lung; HL-60(TB) leukemia; HCC-2998 colon; HOP-92 NSCLC; NCI-H23 lung; UACC-62 melanoma.
Holding throughout (assay): growth of human tumour cells (NCI), 48 h

With `O=C1CCC(=O)N2CCCCN12`, the TGI in the experiment with SK-MEL-5 melanoma, in the experiment with NCI-H522 lung, in the experiment with HL-60(TB) leukemia, with HCC-2998 colon, in the experiment with HOP-92 NSCLC and with NCI-H23 lung was > 100 µM in each case. For the same compound, the TGI with UACC-62 melanoma is > 100 µM.

Take `O=C(O)CNS(=O)(=O)c1ccc(NCc2ccccc2)cc1`: the TGI in the experiment with SK-MEL-5 melanoma, with NCI-H522 lung, in the experiment with HCC-2998 colon, in the experiment on HOP-92 NSCLC, in the experiment on NCI-H23 lung and in the experiment with UACC-62 melanoma was > 100 µM throughout.

Take `COc1ccc(/C=C/CN(C)CCc2ccccc2)cc1OC`: the TGI in the experiment with SK-MEL-5 melanoma was > 100 µM; in the experiment with HCC-2998 colon it was > 100 µM; in the experiment with HOP-92 NSCLC it was 9.9 µM; in the experiment on NCI-H23 lung it was > 100 µM; in the experiment with UACC-62 melanoma, > 100 µM.

With `COC(=O)C1Cc2c(n(Cc3ccccc3)c3ccccc23)C(CCC(=O)O)N1C(C)C` (configuration not stated), the TGI in the experiment with SK-MEL-5 melanoma, in the experiment on NCI-H522 lung, with HL-60(TB) leukemia, in the experiment on HCC-2998 colon, with HOP-92 NSCLC and in the experiment with NCI-H23 lung was > 100 µM throughout. In addition, in the experiment with UACC-62 melanoma, the TGI is > 100 µM.

`C/C(CC(=O)Nc1cc(Cl)c(Cl)cc1Cl)=N\NC(N)=O`: the TGI in the experiment with SK-MEL-5 melanoma, with NCI-H522 lung, in the experiment on HL-60(TB) leukemia, with HCC-2998 colon, with HOP-92 NSCLC and in the experiment on NCI-H23 lung was > 100 µM each time. Moreover, the TGI in the experiment with UACC-62 melanoma was > 100 µM.

For the compound `CCC[CH2][Sn]1([CH2]CCC)[O]Cc2nc(C)ccc2[O]1`, the GI50 was 13 µM in the experiment on SK-MEL-5 melanoma; 1.19 µM in the experiment with NCI-H522 lung; 1.58 µM in the experiment on HL-60(TB) leukemia; 7.86 µM with HCC-2998 colon; 2.52 µM with HOP-92 NSCLC; 1.84 µM in the experiment on NCI-H23 lung. For the same compound, the GI50 in the experiment on UACC-62 melanoma is 2.06 µM. For the same compound, the TGI in the experiment on SK-MEL-5 melanoma is 25.9 µM; with NCI-H522 lung, 2.5 µM; in the experiment on HL-60(TB) leukemia it was 4.64 µM; in the experiment on HCC-2998 colon, 21.3 µM; in the experiment with HOP-92 NSCLC, 19.2 µM; in the experiment with NCI-H23 lung it was 4.79 µM. The compound further gave a TGI in the experiment with UACC-62 melanoma of 4.57 µM.

In the case of `O=C(/N=N/C(=O)OCc1ccccc1)OCc1ccccc1`, the TGI is > 100 µM in the experiment on SK-MEL-5 melanoma; > 100 µM in the experiment on HL-60(TB) leukemia; > 100 µM with HCC-2998 colon; 56.8 µM in the experiment with HOP-92 NSCLC; > 100 µM in the experiment with NCI-H23 lung; > 100 µM in the experiment with UACC-62 melanoma.

As for `CC(C)(C)C1C=C(Sc2ccccc2)C(=O)O1` (configuration not stated), the TGI is 87.8 µM in the experiment on NCI-H522 lung; 55.7 µM in the experiment on HL-60(TB) leukemia; > 100 µM in the experiment on HCC-2998 colon; 75.2 µM with HOP-92 NSCLC; > 100 µM with NCI-H23 lung; > 100 µM with UACC-62 melanoma.

`Cc1cccc(C)c1NC(=O)C(=O)C1C(=O)NC(=O)NC1=O`: the TGI in the experiment with SK-MEL-5 melanoma, in the experiment on NCI-H522 lung, in the experiment with HL-60(TB) leukemia, in the experiment on HCC-2998 colon, with HOP-92 NSCLC and in the experiment with NCI-H23 lung was > 100 µM throughout. For the same compound, the TGI in the experiment on UACC-62 melanoma is > 100 µM.

In the case of `COC(=O)/C(=N/NC(=O)C[N+](C)(C)C)C(C(=O)OC)C(=O)C(=O)Nc1ccc(F)cc1` (configuration not stated), the TGI in the experiment with SK-MEL-5 melanoma, in the experiment with NCI-H522 lung, in the experiment on HL-60(TB) leukemia, in the experiment on HCC-2998 colon, in the experiment with NCI-H23 lung and in the experiment with UACC-62 melanoma was > 100 µM throughout.

For the compound `O=C1O[C@@H](c2ccc3c(c2)OCO3)C2C(=O)O[C@@H](c3ccc4c(c3)OCO4)C12` (some centres not stated), the TGI in the experiment on SK-MEL-5 melanoma, in the experiment with NCI-H522 lung, in the experiment with HL-60(TB) leukemia, in the experiment on HCC-2998 colon, in the experiment on HOP-92 NSCLC and with NCI-H23 lung was > 100 µM in each case. The TGI in the experiment with UACC-62 melanoma was > 100 µM.

Turning to `CCOC(=O)C1=C(OC(OCC)C(CC)[Se]c2ccccc2)CCCC1` (configuration not stated), the TGI in the experiment on SK-MEL-5 melanoma was 35.8 µM; in the experiment with NCI-H522 lung it was 28.4 µM; in the experiment on HL-60(TB) leukemia, 47.8 µM; in the experiment with HCC-2998 colon it was > 100 µM; in the experiment on HOP-92 NSCLC, 46 µM; in the experiment with NCI-H23 lung, 25.5 µM. The same compound showed a TGI in the experiment on UACC-62 melanoma of 62.9 µM.

For the compound `O=C1CCC2(c3ccc(F)cc3)Nc3cc(Cl)ccc3N12` (configuration not stated), the TGI in the experiment with SK-MEL-5 melanoma, in the experiment on NCI-H522 lung, in the experiment with HL-60(TB) leukemia, in the experiment on NCI-H23 lung and with UACC-62 melanoma was > 100 µM in each case.

For `NC(CCC(=O)NC(CSSCCCCS(=O)O)C(=O)NCC(=O)O)C(=O)O` (configuration not stated), the TGI in the experiment on SK-MEL-5 melanoma, with NCI-H522 lung, with HCC-2998 colon, with NCI-H23 lung and with UACC-62 melanoma was > 100 µM throughout.

Regarding `CSC(C1c2ccccc2N(c2ccc(C)cc2)C2=NC(=O)N(C)C(=O)C21Cl)S(=O)(=O)c1ccc(C)cc1` (configuration not stated), the TGI with SK-MEL-5 melanoma is 32.3 µM; in the experiment on NCI-H522 lung it was 31.9 µM; in the experiment with HL-60(TB) leukemia it was 12.6 µM; with HCC-2998 colon it was 36.6 µM; in the experiment with HOP-92 NSCLC it was 27.9 µM; in the experiment with NCI-H23 lung, 46.9 µM. In the experiment on UACC-62 melanoma, this compound gave a TGI of 52 µM.

On to `CCOC(=O)[C]1([Bi]([CH3])[CH3])N=NC(C(=O)OC)=C1C(=O)OC` (configuration not stated), for which the GI50 is 21.2 µM in the experiment on HL-60(TB) leukemia; 16.4 µM with HCC-2998 colon; 20.4 µM in the experiment on HOP-92 NSCLC; 18 µM in the experiment on NCI-H23 lung; 19.5 µM with UACC-62 melanoma. Also, the TGI in the experiment with HL-60(TB) leukemia turned out to be 52.1 µM; with HCC-2998 colon, 30.7 µM; in the experiment on HOP-92 NSCLC, 42.8 µM; in the experiment on NCI-H23 lung, 35 µM; in the experiment on UACC-62 melanoma, 34.4 µM.

Consider `COC(=O)c1c/c(=N\NC(=O)CC(=O)Nc2ccccc2OC)c2ccccc2o1`, for which the TGI in the experiment with SK-MEL-5 melanoma, in the experiment on NCI-H522 lung, in the experiment with HL-60(TB) leukemia, in the experiment with HCC-2998 colon, in the experiment on NCI-H23 lung and with UACC-62 melanoma was > 100 µM throughout.

Take `OCC(O)CC[CH2][Sn]([Br])([c]1ccccc1)[c]1ccccc1` (configuration not stated): the GI50 in the experiment on SK-MEL-5 melanoma was > 100 µM; in the experiment with NCI-H522 lung, 13 µM; in the experiment on HL-60(TB) leukemia, 52 µM; in the experiment on HCC-2998 colon, > 100 µM; in the experiment with HOP-92 NSCLC, > 100 µM; with NCI-H23 lung, > 100 µM. For the same compound, the GI50 with UACC-62 melanoma is 65.8 µM. The TGI is > 100 µM in the experiment with SK-MEL-5 melanoma; 92.1 µM in the experiment on NCI-H522 lung; > 100 µM with HL-60(TB) leukemia; > 100 µM in the experiment with HCC-2998 colon; > 100 µM with HOP-92 NSCLC; > 100 µM in the experiment on NCI-H23 lung. In addition, in the experiment with UACC-62 melanoma, the TGI was > 100 µM.

With `Cc1cc2c(cc1C)[n+](=O)c(C(=O)C/C(=N/NC(=O)CC#N)C(=O)Nc1ccccc1C(F)(F)F)c(C)n2[O-]`, the TGI in the experiment with NCI-H522 lung was 35.5 µM; in the experiment with HL-60(TB) leukemia, 86 µM; in the experiment with HCC-2998 colon, > 100 µM; in the experiment on NCI-H23 lung, > 100 µM; in the experiment with UACC-62 melanoma, > 100 µM.

Turning to `O=c1c2cc([N+](=O)[O-])ccc2sc2ccsc12`, the TGI in the experiment with SK-MEL-5 melanoma, in the experiment on NCI-H522 lung, with HL-60(TB) leukemia, in the experiment on HCC-2998 colon, with HOP-92 NSCLC and in the experiment with NCI-H23 lung was > 100 µM in each case. In the experiment with UACC-62 melanoma, the TGI was > 100 µM.

Take `O=C1/C(=C/c2ccccc2)CNC/C1=C\c1ccccc1`: the TGI in the experiment on SK-MEL-5 melanoma is 4.07 µM; in the experiment on NCI-H522 lung it was 2.66 µM; in the experiment on HCC-2998 colon, 3.33 µM; in the experiment with HOP-92 NSCLC it was 22.1 µM; with NCI-H23 lung it was 4.27 µM; with UACC-62 melanoma, 3.69 µM.

Consider `COC12C=C(C)C(CC1)CC2C(=O)O` (configuration not stated), for which the TGI in the experiment with SK-MEL-5 melanoma, in the experiment on NCI-H522 lung, in the experiment on HL-60(TB) leukemia, with HCC-2998 colon, in the experiment on HOP-92 NSCLC and with NCI-H23 lung was > 100 µM in each case. For the same compound, in the experiment on UACC-62 melanoma, the TGI is > 100 µM.

Take `CC1=NN(C(=O)Nc2ccccc2)C(=O)C2CCC(=O)N12` (configuration not stated): the TGI in the experiment with SK-MEL-5 melanoma, in the experiment on HL-60(TB) leukemia, in the experiment on HCC-2998 colon, with HOP-92 NSCLC, in the experiment on NCI-H23 lung and in the experiment on UACC-62 melanoma was > 100 µM in each case.

For `O=c1/c(=C/c2ccco2)sc2nc3ccccc3n12`, the GI50 in the experiment with SK-MEL-5 melanoma, with NCI-H522 lung, with HL-60(TB) leukemia, in the experiment with HCC-2998 colon, with NCI-H23 lung and in the experiment with UACC-62 melanoma was > 100 µM each time. Also, the TGI with SK-MEL-5 melanoma is > 100 µM; in the experiment on NCI-H522 lung it was > 100 µM; in the experiment with HL-60(TB) leukemia, > 100 µM; in the experiment on HCC-2998 colon, > 100 µM; with HOP-92 NSCLC, > 10 µM; in the experiment on NCI-H23 lung, > 100 µM. Moreover, the TGI with UACC-62 melanoma is > 100 µM.

Consider `O=C(/C=C/c1c(O)ccc2ccccc12)c1cccc(O)c1`, for which the TGI with SK-MEL-5 melanoma was > 100 µM; with NCI-H522 lung it was > 100 µM; with HL-60(TB) leukemia, > 64.3 µM; in the experiment with HCC-2998 colon, > 100 µM; in the experiment with HOP-92 NSCLC, 99.5 µM; with NCI-H23 lung, > 100 µM. Besides, the TGI with UACC-62 melanoma amounted to 69.1 µM.

Regarding `O=C1C2c3[nH]c4ccccc4c3C3CCCCCCC3C2C(=O)N1c1ccccc1` (configuration not stated), the TGI in the experiment on SK-MEL-5 melanoma is > 100 µM; in the experiment on HCC-2998 colon it was > 100 µM; in the experiment with NCI-H23 lung, 70.2 µM; with UACC-62 melanoma it was > 100 µM.
